Measured values taken from patent publication US20070037873A1, “Airway remodeling treatments” (priority 2005, published 2007).

Columns and labels:
[1] = tested on: Human airway smooth muscle (ASM) cells; experiment: Human ASM cell proliferation (MTT) after TNF-α stimulation; type: cell-based; settings: ajulemic acid 0-30 μmoles, 60 minutes, then 1 ng/ml TNF-α for 48 hours, FIG. 1
Protocol: Human airway smooth muscle (ASM) (also known as human bronchial smooth muscle (HBSM)) cells were obtained cryopreserved from Cambrex Bio Science (Walkersville, Md.) at passage 3. See, Ethier and Madison, Cell Calcium, 32:31-38 (2002) and Zhong et al., Am. J Respir Cell Mol. Biol., 30:118-125 (2004). Cultures were characterized as smooth muscle cells by positive immunostaining for smooth muscle actin and negative for Factor VIII. Cells were seeded and grown in smooth muscle basal medium (SMBM, Cambrex Bio Science) supplemented with 5% fetal bovine serum, 5 μg/ml insulin, 0.5 ng/ml epidermal growth factor, 2 ng/ml fibroblast growth factor, gentamicin, and amphotericin. Cells were maintained at 37° C. in a humidified atmosphere (5% CO2), fed every 48 hours, and passaged when confluent. Shortly after passaging, ajulemic acid (synthesized by Organix, Inc., Woburn, Mass.) was added to growth media to a concentration of 0-30 μmoles. Cells were incubated for 60 minutes, and then stimulated with 1 ng/ml TNF-α for 48 hours. After 48 hours, cell proliferation was evaluated using the Cell Proliferation Kit I (MTT) from Roche Diagnostics (Indianapolis, Ind.), which provides a measure of cell number as a function of optical density.

[2] = tested on: NF-KB; experiment: EMSA of NF-KB binding in nuclear extracts of FLS cells; type: cell-based, human; settings: 10 μM ajulemic acid for 1 hour
From the text: Human fibroblast-like synovial (FLS) cells were isolated from synovial tissue or synovial fluid of patients with inflammatory arthritis (4 RA, 1 psoriatic arthritis) essentially as described (Stebulis et al., J. Rheumatol. 32:301-06, 2005). Briefly, synovial tissue obtained at the time of joint replacement surgery was minced and plated in tissue culture dishes with growth medium (MEM with 15% FBS, 1% penicillin/streptomycin solution, 1% nonessential amino acids). Synovial fluid was collected in heparinized syringes, then centrifuged at 1200 rpm for 15 min. The cell pellet was resuspended in growth medium, then plated in tissue culture flasks. After 2-4 days, primary cultures were washed with PBS to remove tissue fragments and nonadherent cells. FLS were incubated at 37° C. under 5% CO2 and passaged to 6-well tissue culture plates (split 1:3) when they reached confluence. Passages 2 through 8 were used for experiments.
Experiments were done on FLS rested overnight in low serum medium (MEM/2% FBS). Medium was replaced before beginning the experiments. Cells were treated with 10 μM ajulemic acid for 1 hour then stimulated with 1 ng/ml TNF-α or left unstimulated. Controls were vehicle (0.3% DMSO) treated cells. […] Gels were scanned and analyzed using ADOBE® software for PC.

[3] = tested on: IK-B; experiment: Western blot of IK-B phosphorylation in TNF-α stimulated FLS cells; type: cell-based, human; settings: FIG. 3
Protocol: FLS cells were collected from human synovial fluid in heparinized syringes, then centrifuged at 1200 rpm (260 g) for 15 minutes. FLS cells are used herein as models of pulmonary fibroblasts and/or myofibroblasts. The resulting cell pellet was resuspended in 7 ml of growth medium (Dulbecco's Minimal Essential Medium with 15% heat-inactivated fetal bovine serum (FBS), 1% nonessential amino acids, 1% penicillin/streptomycin solution) and plated in 25 ml tissue culture flasks. Cultures were incubated at 37° C., under 5% CO2 for 24 to 48 hours after which medium was aspirated and cultures were washed with PBS to remove nonadherent cells. Growth medium was replaced every 3 to 4 days. After 10 to 14 days, adherent cells were harvested by trypsinization, washed, and transferred to 6-well tissue culture plates in fresh growth medium. FLS cells were passaged (split 1:3) at confluence, generally every 10 to 14 days.
FLS cells at passage 2 through 6 were (i) untreated, (ii) treated with 1-30 μM of ajulemic acid in growth media, (iii) treated with 1 ng/ml of TNF-α in growth media, or (iv) treated with a combination of 1-30 μM of ajulemic acid and 1 ng/ml TNF-α for 10 minutes or 45 minutes. Cells were harvested and washed several times with PBS. Whole cell lysates were prepared in hypotonic HEPES buffer (7.45 g KCl/100 ml H2O; 3.80 g EGTA/100 ml H2O;0.87 g PMSF/500 ml H2O; 1.54 g DTT/10 ml H2O). […]

[4] = tested on: MMP-1; experiment: MMP-1 mRNA Northern blot in stimulated FLS cells; type: cell-based, human; settings: FLS treated 60 minutes with AjA, then 10 ng/mL TNFα+1 ng/mL GMCSE for 4 hours; FIG. 4
Protocol: Human fibroblast-like synovial cells (FLS) were obtained from synovial tissue or synovial fluid, and grown to confluence in 6 well tissue culture plates. Cells were treated or not for 60 minutes with AjA, then stimulated with 10 ng/mL TNFα+1 ng/mL GMCSE for 4 hours. MMP-1 mRNA content measured by Northern blot analysis.
Cells were harvested and resuspended in TRIZOL® solution (GIBCO-BRL) to extract total cellular RNA. The RNA was resuspended in diethylpyrocarbonate (DEPC)-treated water. Total RNA (15 μg) was separated by electrophoresis in 1% agarose/17.6% formaldehyde gels. The RNA was transferred overnight from the denaturing gel onto Hybond-N^+ (Amersham Pharmacia Biotech Inc., Piscataway, N.J.) by capillary action using […] buffer ([…]). The RNA was cross-linked to the filter by ultraviolet irradiation for 20 seconds using a UV Crosslinker (Spectronics Corporation, Westbury, N.Y.) and the blots were hybridized with a solution of 5×SSC, 5× Denhardt's solution, 0.5% SDS, and 10 mg/ml sonicated salmon sperm DNA for 5 hours at 65° C., and 10^7 cpm/ml radio-labeled cDNA generated by random priming with ^32P-dCTP ([…], NEN, Boston, Mass.). Probes specific for the MMP-1 gene were heat denatured and added to the prehybridization buffer for hybridization overnight at 65° C. […]

[5] = tested on: human ASM cells; experiment: Fura-2 calcium transients in agonist-stimulated ASM cells; type: cell-based; settings: ajulemic acid 10 μM or 20 μM for 10 minutes, F340/F380 ratio, p<0.01 versus control
Protocol: Human airway smooth muscle (ASM) cells were obtained and passaged as described in Example 1. Subconfluent ASM cells in 96-well plates were washed 3 times in a modified Kreb-Ringer-Henseleit solution (KRH) containing 115 mM NaCl, 5 mM KCl, 1 mM KH2PO4, 1 mM MgSO4, 25 mM N-2-hydroxyethylpiperazine-N′-2-ethanesulfonic acid (HEPES), 15 mM glucose and 2 mM CaCl2. Cells were incubated in 1.0 μM fura 2-AM and pluronic F-127 (0.004%) for 60 minutes at room temperature. See, e.g., Wang et al., Am. J. Phys.; 272:C1151-C1159, 1997. After washing 3 times with KRH, cells were covered with 200 μl KRH and placed on the microscope stage. Reagents were added directly to the wells during calcium recordings. Fura 2-AM and F-127 were from Molecular Probes, Inc. (Eugene, Oreg.). Other chemicals were from Sigma (St. Louis, Mo.).
Fluorescence was induced using computer-controlled 337 and 380 nm UV light generated by a nitrogen laser and a nitrogen laser-pumped dye laser, respectively (Laser Science, Franklin, Mass.). See, e.g., Ethier et al., Cell Calcium, 32:31-38 2002. […]
Background from a cell free region of the cover glass was subtracted prior to data acquisition and then an 11×11 pixels area was selected over each cell. […] Fluorescence emissions stimulated by alternating pulses of ˜340 and 380 nm light were recorded and their ratios plotted. […]

## CCCCCCC(C)(C)c1cc(O)c2c(c1)OC(C)(C)[C@@H]1CC=C(C(=O)O)C[C@@H]21 [ajulemic acid, 1′,1′dimethylheptyl-Δ8-THC-11-oic acid]
[1]
  human ASM cell proliferation: suppressed human ASM cell proliferation in a dose-dependent manner
[2]; then 1 ng/ml TNF-α, extracts 45 minutes after stimulation, lane 4 vs. lane 3
  reduction of TNF-α induced NF-KB activation (binding to oligonucleotide corresponding to an NF-KB binding site): approximately 75%
[2]; unstimulated FLS, EMSA, lane 2 vs. lane 1
  nuclear binding of NF-KB in resting FLS: not altered
[3]; 1-30 μM ajulemic acid with 1 ng/ml TNF-α, after 45 minutes
  expression of the non-phosphorylated form of IK-B: dramatically increased expression of the non-phosphorylated form of IK-B
[3]; 1-30 μM ajulemic acid, 10 minutes after stimulation with 1 ng/ml TNF-α
  phosphorylation of IK-B (phosphor-IK-B): prevented phosphorylation of IK-B
[4]
  MMP-1 expression (mRNA, Northern blot): downregulates MMP-1 expression in a dose-dependent manner
[5]; histamine
  calcium transients, histamine stimulated: suppressed calcium transients
[5]; thrombin
  calcium transients, thrombin stimulated: suppressed calcium transients
